In article PMC5813016 (Nature Communications, 2018):
“Also recorded” adds a separate entry of the source. One block for each compound: values may come before it.

Experiments:
[1] = tested on: human D1R / β-arrestin2-GFP in U2OS cells; test: β-arrestin2-GFP membrane recruitment, TIRFM, U2OS cells; assay type: cell-based; conditions: U2OS cells expressing human D1R, 1 μM agonist, 10 min
Procedure: This stable U2OS cell line was generated, obtained and licensed from Professor Marc G. Caron, Duke University, Durham, NC, USA. […] The U2OS cells were cultured under antibiotic selection in DMEM (Invitrogen) containing 25 mM glucose and 4 mM L-glutamine supplemented with 10% dialyzed fetal bovine serum, […] Geneticin, […] Zeocin, and 100 U/ml penicillin/streptomycin (all from Invitrogen) and incubated at 37 °C in 5% CO2. Cells from passage four through ten were used in these experiments. Cells were grown in 35 mm glass bottomed imaging dishes (Mattek Corp). Cells were incubated for 1 h in serum free media (SFM) and subsequently treated for 10 min at 37 °C with 0.01% DMSO (control) or 1 μM of all test compounds dissolved in SFM followed by immediate fixation on ice with a 4% paraformaldehyde/1× phosphate buffered saline solution.
TIRFM was used to visualize proteins at the plasma membrane of cells such as D1 receptors and recruited β-arrestin-GFP[65]. All images were captured using a Zeiss PS.1 Elyra Superresolution fluorescence microscope equipped with TIRF module.
Custom image analysis scripts were developed to automatically identify and quantify β-arrestin membrane recruitment. We employed standard methods of image processing based on grayscale morphology. First 16bit images were transformed to 8bit range via square root transformation to improve identification of punctate structure of varying intensity. Images were smoothed with small Gaussian kernel to eliminate noise (h = 2px, σ = 1). At the next step images were transformed via tophat operation with large kernel (radius 30px) to eliminate non-uniformity of the background. Second tophat transform with small kernel (radius 5px) was used to enhance signal and eliminate local intensity variation around puncta. This image was then processed to find locations of puncta intensity peaks via non-maximal suppression filter with 3px radius of region considered in non-maximal suppression, and threshold 20. Finally the boundaries of puncta were identified using marker controlled watershed operation with peaks serving as foreground markers. After having identified each puncta, we used 8bit transformed but otherwise non-processed images to quantify intensity and area of each region. We focused on two endpoints, number of puncta per cell and integrated intensity of puncta per cell (sum of the products of average intensity and area of each puncta within a cell), both adjusted for cell area as described below. The boundaries of the cells were identified via Otsu's method, followed by hole filling and identification of the largest closely connected component. The area of the foreground was used as normalization factor to account for occasional differences in cell areas in the field of view. Specifically all foreground areas across experiment were pooled and divided by the median of the areas to obtain normalization factor for each image. This factor was then used for adjustment for number of puncta and integrated intensity of puncta, which scale with the number of cells. Puncta outside of cell boundaries were filtered out.
The results were aggregated over batches of cells recorded at the same time, with three or more batches per condition, approximately 20 cells per well. The statistical significance was tested via one-way ANOVA with treatment as a factor. To address the problem of severe inequality of variances across the treatment groups assessed via Bartlett′s test, we used square root transformation. All statistical results for the number of puncta per cell and integrated intensity of puncta per cell are presented for transformed variables. Significant ANOVA findings were followed with post-hoc comparisons with Dunnett′s procedure in case of comparisons with the control group or with false discover rate adjustment[69] otherwise. All statistical tests were performed two-tailed at a 5% level of significance.

[2] = target: human dopamine D1 receptor (hD1R) (Homo sapiens, UniProt P21728); test: hD1R cAMP HTRF assay (stable HEK293); conditions: percent of maximum response of 5 µM dopamine
Sequence of human dopamine D1 receptor (hD1R) (P21728 whole entry): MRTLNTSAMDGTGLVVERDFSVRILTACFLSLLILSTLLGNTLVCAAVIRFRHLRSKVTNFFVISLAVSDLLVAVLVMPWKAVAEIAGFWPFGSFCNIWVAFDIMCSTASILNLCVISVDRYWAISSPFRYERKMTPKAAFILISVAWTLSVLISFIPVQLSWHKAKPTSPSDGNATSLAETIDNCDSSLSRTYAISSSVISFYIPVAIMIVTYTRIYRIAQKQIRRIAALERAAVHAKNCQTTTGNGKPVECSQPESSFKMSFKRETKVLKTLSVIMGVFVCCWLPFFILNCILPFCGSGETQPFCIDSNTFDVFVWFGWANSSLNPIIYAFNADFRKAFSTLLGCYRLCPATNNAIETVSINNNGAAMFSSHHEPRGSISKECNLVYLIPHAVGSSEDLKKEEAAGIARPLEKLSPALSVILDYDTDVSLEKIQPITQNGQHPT

human D3R = human D3R (Homo sapiens, UniProt P35462); test: Human D3R radioligand binding ([3H]-7-OH-DPAT, CHO)
Sequence of human D3R (P35462 whole entry): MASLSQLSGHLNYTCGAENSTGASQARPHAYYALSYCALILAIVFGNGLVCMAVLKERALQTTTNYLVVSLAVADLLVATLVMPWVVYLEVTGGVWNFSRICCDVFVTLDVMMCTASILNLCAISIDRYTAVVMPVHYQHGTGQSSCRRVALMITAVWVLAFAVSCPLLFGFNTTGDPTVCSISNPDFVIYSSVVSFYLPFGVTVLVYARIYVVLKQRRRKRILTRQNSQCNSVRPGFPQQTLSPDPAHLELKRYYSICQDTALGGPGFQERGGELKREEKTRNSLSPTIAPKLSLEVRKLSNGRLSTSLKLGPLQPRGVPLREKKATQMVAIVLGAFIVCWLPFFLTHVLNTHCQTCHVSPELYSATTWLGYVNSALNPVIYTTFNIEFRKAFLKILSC

[3] = target: human dopamine D5 receptor (hD5R) (Homo sapiens, UniProt P21918); test: hD5R cAMP HTRF assay (stable HEK293); conditions: for Efficacy hD5R cAMP: percent of maximum response of 5 µM dopamine
Sequence of human dopamine D5 receptor (hD5R) (P21918 whole entry): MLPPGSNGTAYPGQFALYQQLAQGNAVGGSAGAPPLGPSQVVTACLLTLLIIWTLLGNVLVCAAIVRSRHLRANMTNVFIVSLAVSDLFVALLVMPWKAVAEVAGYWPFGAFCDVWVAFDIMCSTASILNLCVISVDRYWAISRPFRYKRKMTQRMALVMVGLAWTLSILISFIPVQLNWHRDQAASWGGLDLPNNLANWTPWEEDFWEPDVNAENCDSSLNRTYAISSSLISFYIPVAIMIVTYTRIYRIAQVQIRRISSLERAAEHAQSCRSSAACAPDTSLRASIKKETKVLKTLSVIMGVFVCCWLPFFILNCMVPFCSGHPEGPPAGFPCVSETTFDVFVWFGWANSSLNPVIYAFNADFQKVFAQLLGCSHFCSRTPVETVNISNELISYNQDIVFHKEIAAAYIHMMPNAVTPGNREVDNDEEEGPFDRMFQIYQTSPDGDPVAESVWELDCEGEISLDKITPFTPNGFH

human D2R (hD2R) = human D2R (hD2R) (Homo sapiens, UniProt P14416); test: Human D2R radioligand binding ([3H]-spiperone, CHO)
Sequence of human D2R (hD2R) (P14416 whole entry): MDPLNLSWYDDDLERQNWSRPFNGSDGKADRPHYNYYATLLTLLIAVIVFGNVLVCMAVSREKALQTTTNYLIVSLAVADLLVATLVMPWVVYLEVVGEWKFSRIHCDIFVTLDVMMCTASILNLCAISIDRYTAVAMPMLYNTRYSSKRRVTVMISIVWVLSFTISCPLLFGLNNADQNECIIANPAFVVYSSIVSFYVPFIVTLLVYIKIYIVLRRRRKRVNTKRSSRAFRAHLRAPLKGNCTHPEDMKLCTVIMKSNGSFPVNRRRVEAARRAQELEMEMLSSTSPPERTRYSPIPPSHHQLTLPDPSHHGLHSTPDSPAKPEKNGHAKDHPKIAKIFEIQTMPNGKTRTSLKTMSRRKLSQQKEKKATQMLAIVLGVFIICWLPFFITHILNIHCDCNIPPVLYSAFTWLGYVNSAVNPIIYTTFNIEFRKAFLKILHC

human D5R = human D5R (Homo sapiens, UniProt P21918); test: Human D5R radioligand binding ([3H]-SCH23390, CHEM-1)
Sequence of human D5R (P21918 whole entry): as the sequence (P21918 whole entry) above

human D1R = human D1R (Homo sapiens, UniProt P21728); test: Human D1R radioligand binding ([3H]-SCH23390, LTK cells)
Sequence of human D1R (P21728 whole entry): as the sequence (P21728 whole entry) above

cynomolgus monkeys = test: Monkey spontaneous eye blink rate (EBR); assay type: in vivo, Macaca fasicularis; conditions: monkey; data not shown
Procedure: Increase in spontaneous EBR has been previously shown with D1 agonists and partial agonists. To confirm the specificity of the response in our particular assay set up for D1 activation, we verified that the D1 receptor antagonist SCH-39166 fully blocks the increased eye blink response of non-catechol full D1 agonist that is a close structural analog of the compounds in this paper (data not shown). All procedures involving animals were conducted with approval of the Pfizer Institutional Animal Care and Use Committee (Groton, CT) and compliant with the regulations and standards of the Animal Welfare Act (9CFR2, 9CFR3). Three male Cynomolgus macaques (Macaca fasicularis) of Mauritian origin, 7–10 years old, SPF for CHV-1, SIV, STLV1 and SRV 1, 2, 5 were used. Animals were exposed to 12 h light/dark cycle (lights on 6:00 AM – 6:00 PM). […] EBRS were recorded from chaired animals for 2 min at 10 min intervals by a trained observer through direct visual observation who was blinded to experimental conditions. Animals were chaired at approximately 7:30 AM. After vehicle or compound administration, eye blinks were recorded during the following intervals: from 10 to 50 min (0–1 h), 130 to 170 min (2–3 h), 310 to 350 min (5–6 h). Animals were returned to their home cages between two consecutive sessions and after the final recording of the day. Blood samples (1 ml) were collected from the femoral vein at 1 and 5 h after the first dose to quantitate plasma compound levels. […] A77636 was dissolved in 0.9% sterile saline, formulated fresh prior to administration, and given once per day for 3 days. […] Vehicle control was administered on day 0.
EBR data were first converted to blinks per minute. EBR were averaged by binning into 3 periods: Period 1 (0–1 h after the first dose) EBR = mean of 10, 20, 30, 40, and 50 min recordings; Period 2 (2–3 h after the first dose) EBR = mean of 130, 140, 150, 160, and 170 min recordings; Period 3 (5–6 h after the first dose) EBR = mean of 310, 320, 330, 340, and 350 min recordings. For Fig. 5c EBR data were averaged by binning data from periods 1 through 3 as daily EBR. Data from each animal was then normalized to their respective Day 1 EBR and expressed as percent of Day 1 EBR for each drug. EBR data were analyzed with SAS® 9.4 (SAS Institute Inc. Cary, NC) using a mixed linear model (Mixed Procedure) for repeated measures. The model included treatment, day, time period, and their interactions as fixed effects, and animal and animal-by-day interaction as random effects. A first order autoregressive model was used for longitudinal covariance structure. Differences between least squares means across days, overall and for each time period, were tested and adjusted for multiple comparisons via Tukey method. […]

[4] = Rat pharmacokinetic studies; assay type: in vivo, Wistar Hannover rat
Procedure: Rat pharmacokinetic studies were conducted at BioDuro, Pharmaceutical Product Development, Inc. (Shanghai, China). Wistar Hannover rats (227–293 gram weight) were obtained from Vital River Laboratories (China). All animal studies were conducted in accordance with the Pfizer Institutional Animal Care and Use Committee (Groton, CT), using protocols approved by Pfizer PDM′s Global BA Committee (2009). Jugular vein-cannulated male Wistar Hanover rats were maintained on a 12 h light/dark cycle for a minimum of three days in a temperature-controlled and humidity-controlled environment with free access to food and water. Individual animals (n = 2 or 3 per dose/route) were administered a single dose of compound by either intravenous injection via tail vein or oral gavage based on body weight. […] The PF-6142 intravenous dose (1 mg/kg) was formulated in saline acidified with three molar equivalents of 1 N hydrochloric acid and the PF-6142 oral dose (5 mg/kg) was formulated in 0.5% methylcellulose. […] Formulations were agitated until all of the test article was dissolved. […] From each rat, serial blood samples were collected via jugular vein cannula prior to dose administration and at the following time points post-dose: 0.033 (i.v. only), 0.083, 0.25, 0.5, 1, 2, 4, 7, and 24 h. […] All blood samples were placed on wet ice until centrifugation. Following centrifugation, the plasma was transferred to polypropylene tubes and stored frozen at either −20 °C to −80 °C until analysis. Urine was collected from all intravenous-dosed rats into collection tubes from the collection intervals of 0–7 h and 7–24 h post-dose. […] All urine samples were stored at −80 °C until analysis. All samples were processed for quantitation of compound concentrations using protein precipitation methodology followed by analysis using liquid chromatography-tandem mass spectrometry (LC-MS/MS). […] The pharmacokinetic parameters (including those in Supplementary Table 3) were computed by non-compartmental analysis[61] using Watson Bioanalytical LIMS version 7.4 (Thermo Fischer Scientific, CA).

[5] = tested on: D1R in rat striatal neurons; test: D1R desensitization in primary rat striatal neurons (cAMP after SKF-81297 challenge); assay type: cell-based; conditions: rat striatal neurons pretreated 120 min with 10 μM agonist
Procedure: Striatal neurons were chosen for the desensitization studies because they express endogenous D1 receptors and are a physiologically relevant tissue for examining neurotransmitter receptor desensitization in vitro. […] Both hemispheres of the striatum were microdissected from the embryonic rat brains and placed into HBSS. All isolated tissue was combined and washed 1× with HBSS, followed by trypsinization using a 0.05% trypsin-EDTA solution for 15 min at 37 °C. […] The cell suspension was added to the top of 5 ml complete MEM media with 1 ml of 100% FBS serum at bottom of a 15 ml tube and centrifuged at 1450 rpm for 5 min. The […] and diluted 10-20× in complete MEM and cell density determined. Cells were plated at a density of 35,000 cells/well in poly-ornithine/laminin coated 96 well plates (Biocoat, BD Falcon) and cultured in Neurobasal media supplemented with B27, 1× Glutamax, and penicillin/streptomycin (100 U/mL) (all from Invitrogen) at 37 °C in 5% CO2 for 14-16 days prior to assay. […] After the pretreatment, cells were washed twice at 5 min intervals with 250 μl/well fresh Neurobasal media. […] The concentration of cAMP (nM) from treated wells was interpolated from a cAMP standard curve by non-linear regression least squares analysis using Graphpad Prism 5.02. […] The percent desensitization was calculated as the percent decrease in cAMP relative to vehicle control. Statistical differences were compared by a one-way ANOVA with Dunnett's post-test analysis using Graphpad Prism 5.02.

Efficacy hD1R cAMP [2]: 100±2
Ki (human D3R): 387 ± 21 nM
SMILES: Oc1cc2c(cc1O)[C@H]1c3ccccc3CN[C@@H]1CC2 (racemic) [Dihydrexidine, reference compound]
β-arrestin-GFP recruitment to the plasma membrane (TIRFM) [1]: significantly higher signal

SMILES: NCCc1ccc(O)c(O)c1 [Dopamine, reference compound]
β-arrestin-GFP recruitment to the plasma membrane (TIRFM) [1]: membrane associated β-arrestin puncta appeared rapidly; also recorded: significantly higher signal

SMILES: Cn1nccc1-c1ccc(Oc2nccc3occc23)cc1 [PF-4211]
EC50 [3]: 1780 ± 144 nM
Efficacy hD5R cAMP [3]: 53±1
Ki (human D2R (hD2R)): > 4280 nM
Ki (human D3R): > 671 nM
Ki (human D5R): 1890 ± 508 nM
Ki (human D1R): 3140 ± 335 nM

SMILES: CN1CCc2cc(Cl)c(O)cc2[C@H]2c3ccccc3CC[C@@H]21 [SCH-39166]
blockade of EBR increase induced by a non-catechol full D1 agonist (cynomolgus monkeys): fully blocks

SMILES: Oc1cc2c(cc1O)C(c1ccccc1)CNCC2 (stereo not shown) [SKF-38393, reference compound]
CL ([4]; intravenous (1 mg/kg; PF-2334 0.1 mg/kg)): rapid clearance
clearance ([4]; male, Wistar Hannover, plasma, iv): 245 mL/min/kg
Vd ([4]; male, Wistar Hannover, plasma, iv, read-out: Vdss): 3.9 L/kg
bioavailability ([4]; male, Wistar Hannover, plasma, oral bioavailability): 9.5%
half-life ([4]; male, Wistar Hannover, plasma, read-out: t½ (converted)): 24 min
F ([4]; oral bioavailability): low oral bioavailability
percent desensitization of D1R cAMP response to 1 μM SKF-81297 challenge [5]: 40–60%
Efficacy hD1R cAMP [2]: 41±3
Ki (human D3R): > 671 nM

Efficacy hD5R cAMP [3]: 100±1
SMILES: Oc1cc2c(c(Cl)c1O)CCNCC2c1ccccc1 (stereo not shown) [SKF-81297, reference compound]
β-arrestin-GFP recruitment to the plasma membrane (TIRFM) [1]: membrane associated β-arrestin puncta appeared rapidly
